Measured values from patent publication US5916905A, “2,3-substituted pyridines for the treatment of inflammation” (G. D. Searle & Co., priority 1997, dated 1999).
pIC50: −log10 of the molar value.

Assays:
COX-2 [1] = biological target: T1, COX-2 (Mus musculus, UniProt Q05769); test: COX-2 activity in vitro, recombinant murine enzyme (PGE2 ELISA); assay type: biochemical; details: murine (m); 10 μM arachidonic acid, 10-20 min pre-incubation; read-out: COX-2 ID50
T1 construct: A 2.0 kb fragment containing the coding region; made in house; host or cells: SF9 insect cells (baculovirus, pVL1393)
T1 sequence (Q05769 18-604): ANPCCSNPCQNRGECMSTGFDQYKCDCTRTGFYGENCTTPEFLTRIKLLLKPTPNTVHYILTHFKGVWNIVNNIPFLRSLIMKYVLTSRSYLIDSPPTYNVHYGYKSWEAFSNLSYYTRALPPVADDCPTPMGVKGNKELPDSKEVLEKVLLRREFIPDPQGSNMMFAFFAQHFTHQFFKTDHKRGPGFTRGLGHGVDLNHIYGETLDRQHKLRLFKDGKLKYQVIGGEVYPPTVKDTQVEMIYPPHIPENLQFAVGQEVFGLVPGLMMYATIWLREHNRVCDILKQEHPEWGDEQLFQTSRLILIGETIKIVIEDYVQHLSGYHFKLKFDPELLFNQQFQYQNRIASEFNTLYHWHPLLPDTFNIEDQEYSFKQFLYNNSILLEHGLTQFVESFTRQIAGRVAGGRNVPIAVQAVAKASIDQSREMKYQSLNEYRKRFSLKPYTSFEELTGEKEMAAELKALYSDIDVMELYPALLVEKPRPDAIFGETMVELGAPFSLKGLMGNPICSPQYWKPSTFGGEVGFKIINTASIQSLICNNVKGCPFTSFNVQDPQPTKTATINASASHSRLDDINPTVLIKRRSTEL
Experimental: (§1) The COX-2 inhibition activity of the compounds of this invention illustrated in the Examples was determined by the following methods.
(§2) Recombinant COX-1 and COX-2 were prepared as described by Gierse et al, [J. Biochem., 305, 479-84 (1995)]. A 2.0 kb fragment containing the coding region of either human or murine COX-1 or human or murine COX-2 was cloned into a BamH1 site of the baculovirus transfer vector pVL1393 (Invitrogen) to generate the baculovirus transfer vectors for COX-1 and COX-2 in a manner similar to the method of D. R. O'Reilly et al (Baculovirus Expression Vectors: A Laboratory Manual (1992)). Recombinant baculoviruses were isolated by transfecting 4 μg of baculovirus transfer vector DNA into SF9 insect cells (2×10^8) along with 200 ng of linearized baculovirus plasmid DNA by the calcium phosphate method. See M. D. Summers and G. E. Smith, A Manual of Methods for Baculovirus Vectors and Insect Cell Culture Procedures, Texas Agric. Exp. Station Bull. 1555 (1987). Recombinant viruses were purified by three rounds of plaque purification and high titer (10^7 -10^8 pfu/ml) stocks of virus were prepared. For large scale production, SF9 insect cells were infected in 10 liter fermentors (0.5×10^6 /ml) with the recombinant baculovirus stock such that the multiplicity of infection was 0.1. After 72 hours the cells were centrifuged and the cell pellet homogenized in Tris/Sucrose (50 mM: 25%, pH 8.0) containing 1% 3-[(3-cholamidopropyl)dimethylammonio]-1-propanesulfonate (CHAPS). The homogenate was centrifuged at 10,000×G for 30 minutes, and the resultant supernatant was stored at -80° C. before being assayed for COX activity.
(§3) b. Assay for COX-1 and COX-2 activity COX activity was assayed as PGE2 formed/μg protein/time using an ELISA to detect the prostaglandin released. CHAPS-solubilized insect cell membranes containing the appropriate COX enzyme were incubated in a potassium phosphate buffer (50 mM, pH 8.0) containing epinephrine, phenol, and heme with the addition of arachidonic acid (10 μM). Compounds were pre-incubated with the enzyme for 10-20 minutes prior to the addition of arachidonic acid. Any reaction between the arachidonic acid and the enzyme was stopped after ten minutes at 37° C./room temperature by transferring 40 μl of reaction mix into 160 μl ELISA buffer and 25 μM indomethacin. The PGE2 formed was measured by standard ELISA technology (Cayman Chemical).

carrageenan foot edema = test: Rat Carrageenan Foot Pad Edema Test; assay type: in vivo, rat (male Sprague-Dawley); details: @ 10 mg/kg body weight, oral, 1 h before carrageenan; read 3 h after injection
Experimental: Rat Carrageenan Foot Pad Edema Test
Male Sprague-Dawley rats were selected in each group so that the average body weight was as close as possible. Rats were fasted with free access to water for over sixteen hours prior to the test. […] One hour later a subplantar injection of 0.1 mL of 1% solution of carrageenan/sterile 0.9% saline was administered and the volume of the injected foot was measured with a displacement plethysmometer connected to a pressure transducer with a digital indicator. Three hours after the injection of the carrageenan, the volume of the foot was again measured.

COX-1 [2] = biological target: T2, COX-1 (Mus musculus, UniProt P22437); test: COX-1 activity in vitro, recombinant murine enzyme (PGE2 ELISA); assay type: biochemical; details: murine (m); 10 μM arachidonic acid, 10-20 min pre-incubation; read-out: COX-1 ID50
T2 construct: A 2.0 kb fragment containing the coding region; made in house; host or cells: SF9 insect cells (baculovirus, pVL1393)
T2 sequence (P22437 27-602): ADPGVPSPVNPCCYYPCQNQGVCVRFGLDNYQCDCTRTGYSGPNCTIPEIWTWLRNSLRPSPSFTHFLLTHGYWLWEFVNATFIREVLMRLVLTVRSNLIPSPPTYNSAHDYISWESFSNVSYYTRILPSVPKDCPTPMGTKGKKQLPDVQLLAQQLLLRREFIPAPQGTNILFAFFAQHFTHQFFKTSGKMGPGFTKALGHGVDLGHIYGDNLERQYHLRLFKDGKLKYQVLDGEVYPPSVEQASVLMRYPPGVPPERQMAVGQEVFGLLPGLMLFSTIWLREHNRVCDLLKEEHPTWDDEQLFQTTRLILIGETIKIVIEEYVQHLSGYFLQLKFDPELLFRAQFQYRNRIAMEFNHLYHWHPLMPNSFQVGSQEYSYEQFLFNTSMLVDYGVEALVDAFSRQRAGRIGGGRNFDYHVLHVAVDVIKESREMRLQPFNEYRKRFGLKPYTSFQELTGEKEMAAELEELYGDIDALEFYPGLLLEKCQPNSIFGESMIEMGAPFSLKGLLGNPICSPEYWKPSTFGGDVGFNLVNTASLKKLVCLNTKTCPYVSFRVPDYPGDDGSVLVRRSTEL
Experimental: as §1, §2, §3

COX-1 [3] = biological target: T3, COX-1 (Homo sapiens, UniProt P23219); test: COX-1 activity in vitro, recombinant human enzyme (PGE2 ELISA); assay type: biochemical; details: human (h); 10 μM arachidonic acid, 10-20 min pre-incubation; read-out: COX-1 ID50
T3 construct: A 2.0 kb fragment containing the coding region; made in house; host or cells: SF9 insect cells (baculovirus, pVL1393)
Experimental: as §1, §2, §3

COX-2 [4] = biological target: T4, COX-2 (Homo sapiens, UniProt P35354); test: COX-2 activity in vitro, recombinant human enzyme (PGE2 ELISA); assay type: biochemical; details: human (h); 10 μM arachidonic acid, 10-20 min pre-incubation; read-out: COX-2 ID50
T4 construct: A 2.0 kb fragment containing the coding region; made in house; host or cells: SF9 insect cells (baculovirus, pVL1393)
T4 sequence (P35354 18-604): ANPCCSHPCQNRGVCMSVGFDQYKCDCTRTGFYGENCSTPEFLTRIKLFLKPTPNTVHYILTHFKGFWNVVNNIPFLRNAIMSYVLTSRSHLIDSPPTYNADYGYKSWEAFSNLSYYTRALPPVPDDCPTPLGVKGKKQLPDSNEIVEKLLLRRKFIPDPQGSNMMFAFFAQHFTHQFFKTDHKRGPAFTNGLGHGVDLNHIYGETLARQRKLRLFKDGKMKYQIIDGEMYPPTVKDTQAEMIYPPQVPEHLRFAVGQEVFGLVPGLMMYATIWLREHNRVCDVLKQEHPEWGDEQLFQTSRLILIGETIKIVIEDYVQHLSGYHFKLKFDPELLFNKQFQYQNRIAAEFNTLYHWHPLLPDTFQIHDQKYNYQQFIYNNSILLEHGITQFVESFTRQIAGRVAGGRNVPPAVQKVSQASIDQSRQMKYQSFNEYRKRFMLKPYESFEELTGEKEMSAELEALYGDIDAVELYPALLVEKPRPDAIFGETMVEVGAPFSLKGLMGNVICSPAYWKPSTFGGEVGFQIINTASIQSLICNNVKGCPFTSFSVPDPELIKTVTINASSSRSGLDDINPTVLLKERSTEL
Experimental: as §1, §2, §3

T3 sequence (P23219 24-599): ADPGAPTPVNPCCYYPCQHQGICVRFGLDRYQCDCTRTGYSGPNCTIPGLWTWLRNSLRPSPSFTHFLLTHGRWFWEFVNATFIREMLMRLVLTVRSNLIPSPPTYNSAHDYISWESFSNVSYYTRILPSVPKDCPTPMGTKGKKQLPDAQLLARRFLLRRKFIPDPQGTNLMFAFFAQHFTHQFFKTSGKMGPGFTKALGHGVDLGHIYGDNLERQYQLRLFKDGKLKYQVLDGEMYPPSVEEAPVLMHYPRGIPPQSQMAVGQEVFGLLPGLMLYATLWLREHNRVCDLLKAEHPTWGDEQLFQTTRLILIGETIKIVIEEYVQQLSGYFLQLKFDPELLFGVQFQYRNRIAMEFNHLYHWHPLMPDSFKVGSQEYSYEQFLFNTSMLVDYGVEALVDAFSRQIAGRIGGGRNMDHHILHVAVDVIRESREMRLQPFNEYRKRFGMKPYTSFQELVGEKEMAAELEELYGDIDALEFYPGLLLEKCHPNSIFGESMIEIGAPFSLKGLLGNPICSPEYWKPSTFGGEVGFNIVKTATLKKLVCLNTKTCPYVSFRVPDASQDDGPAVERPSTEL

Compound: CS(=O)(=O)c1ccc(-c2cc(C#N)c(Br)nc2-c2ccc(F)cc2)cc1 [Example 3, 2-Bromo-6-(4-fluorophenyl)-5-[4-(methylsulfonyl)phenyl]-pyridine-3-carbonitrile]
- pIC50 (COX-2 [1]): > 7.00
- RAT PAW EDEMA % Inhibition (carrageenan foot edema): 16%
- pIC50 (COX-1 [2]): < 5.00

Compound: COc1nc(-c2ccc(S(C)(=O)=O)cc2)c(-c2ccc(F)cc2)cc1C#N [Example 23]
- pIC50 (COX-2 [1]): 6.52
- pIC50 (COX-1 [2]): < 4.00

Compound: CS(=O)(=O)c1ccc(-c2cc(C#N)c(-c3ccccc3)nc2-c2ccc(F)cc2)cc1 [Example 4, 6-(4-Fluorophenyl)-5-[4-(methylsulfonyl)phenyl]-2-phenyl-pyridine-3-carbonitrile]
- pIC50 (COX-2 [1]): > 7.00
- RAT PAW EDEMA % Inhibition (carrageenan foot edema): 18%
- pIC50 (COX-1 [2]): < 5.00

Compound: CS(=O)(=O)c1ccc(-c2cc(C#N)cnc2-c2ccc(F)cc2)cc1 [Example 22, 6-(4-Fluorophenyl)-5-[4-(methylsulfonyl)phenyl]pyridine-3-carbonitrile]
- pIC50 (COX-2 [1]): 6.52
- pIC50 (COX-1 [2]): < 5.00

Compound: CS(=O)(=O)c1ccc(-c2cc(C(N)=O)c(Cl)nc2-c2ccc(F)cc2)cc1 [Example 20, 2-Chloro-6-(4-fluorophenyl)-5-[4-(methylsulfonyl)phenyl]pyridine-3-carboxamide]
- pIC50 (COX-2 [1]): 4.58
- pIC50 (COX-1 [2]): < 4.00

Compound: CS(=O)(=O)c1ccc(-c2cc(C#N)c(Cl)nc2-c2ccc(F)cc2)cc1 [Example 7, 2-Chloro-6-(4-fluorophenyl)-5-[4-(methylsulfonyl)phenyl]-pyridine-3-carbonitrile]
- pIC50 (COX-2 [1]): 7.00
- pIC50 (COX-1 [2]): < 4.00

Compound: COc1nc(-c2ccc(F)cc2)c(-c2ccc(S(C)(=O)=O)cc2)cc1C#N [Example 2, 6-(4-Fluorophenyl)-2-methoxy-5-[4-(methylsulfonyl)phenyl]-pyridine-3-carbonitrile]
- RAT PAW EDEMA % Inhibition (carrageenan foot edema): 16%
- pIC50 (COX-1 [3]): < 4.00
- pIC50 (COX-2 [4]): 6.70

Compound: CS(=O)(=O)c1ccc(-c2cc(C(N)=O)cnc2-c2ccc(F)cc2)cc1 [Example 21, 6-(4-Fluorophenyl)-5-[4-(methylsulfonyl)phenyl]pyridine-3-carboxamide]
- pIC50 (COX-2 [1]): 3.98
- pIC50 (COX-1 [2]): < 4.00
